Source: patent publication US10385067B2, “Sodium (2R,5S,13aR)-7,9-dioxo-10-((2,4,6-trifluorobenzyl)carbamoyl)-2,3,4,5,7,9,13,13a-octahydro-2,5-methanopyrido[1′,2′:4,5]pyrazino[2,1-b][1,3]oxazepin-8-olate” (Gilead Sciences, Inc., priority 2014, dated 2019)

Legend:
[1] = system: HIV; details: as discussed in co-pending U.S. Ser. No. 14/133,855 and PCT US2013/076367; cited from earlier work
[2] = Stability on storage under accelerated conditions; format: physicochemical; details: after four weeks of storage under accelerated conditions
Procedure: The stability of sodium (2R,5S,13aR)-7,9-dioxo-10-((2,4,6-trifluorobenzyl)carbamoyl)-2,3,4,5,7,9,13,13a-octahydro-2,5-methanopyrido[1′,2′:4,5]pyrazino[2,1-b][1,3]oxazepin-8-olate Form I was tested. […] In Table 5, AN refers to area normalization and is the relative peak area of the active with respect to other impurities and components contained in the sample. LS refers to labile strength and is the amount of active present relative to the theoretical amount.

Structure (SMILES) | anti-viral activity [1] | stability [2]
O=C(NCc1c(F)cc(F)cc1F)c1cn2c(c(O)c1=O)C(=O)N1[C@H]3CC[C@H](C3)O[C@@H]1C2 [Formula I, (2R,5S,13aR)-8-hydroxy-7,9-dioxo-N-(2,4,6-trifluorobenzyl)-2,3,4,5,7,9,13,13a-octahydro-2,5-methanopyrido[1′,2′:4,5]pyrazino[2,1-b][1,3]oxazepine-10-carboxamide] | demonstrates anti-viral activity | 
O=C(NCc1c(F)cc(F)cc1F)c1cn2c(c([O-])c1=O)C(=O)N1[C@H]3CC[C@H](C3)O[C@@H]1C2.[Na+] [Formula II Form I, sodium (2R,5S,13aR)-7,9-dioxo-10-((2,4,6-trifluorobenzyl)carbamoyl)-2,3,4,5,7,9,13,13a-octahydro-2,5-methanopyrido[1′,2′:4,5]pyrazino[2,1-b][1,3]oxazepin-8-olate] |  | stable
